Consider 78 compounds from article PMC12040169 (PLOS Biology, 2025).

One data set is described as follows: in vitro. The note with it: human, hela cells, % viability.
Regarding `Clc1ccc(COc2ccc(/C=N/Nc3nc(N4CCOCC4)nc(N4CCOCC4)n3)cc2)c(Cl)c1` [CBK262061], the viability at 28.5 h, 10 µM was 103%. On the same count and under the same terms, the same measure for `N#CC(/N=C/c1ccc(C#Cc2ccccc2)cc1)=C(C#N)/N=C/c1ccc(C#Cc2ccccc2)cc1` [CBK262066]: 88%; for `COc1ccc(-c2n[nH]cc2/C=N/NC(=O)c2cc(Br)ccc2O)c(OC)c1` [CBK262067]: 85.9%. Take `CC1CCN(S(=O)(=O)c2cccc3c(S(=O)(=O)N4CCC(C)CC4)cccc23)CC1` [CBK262071]: the viability at 28.5 h, 10 µM is 98.2%.

For `Cc1ccc2ccc(S(=O)(=O)NCc3cccnc3)cc2c1` [CBK262072], the viability at 28.5 h, 10 µM stood at 98.8%. In the case of `CCN(CC)CC(c1ccccc1)C(O)c1ccc(OC)cc1` (stereo not drawn) [CBK262074C], the viability at 28.5 h, 10 µM came out at 88.8%. The same measure, in the same setting: the same measure for `COc1cc(C)nc(NN)n1` [CBK262078]: 108%; for `Cc1cc(-c2cc(C)n[nH]2)[nH]n1` [CBK262079]: 107%. Take `CC(=O)C(C(=O)Nc1ccc(F)cc1)C(c1cccc2ccccc12)C(C#N)C#N` (stereo not drawn) [CBK262081]: the viability at 28.5 h, 10 µM is 90.4%. Turning to `Cc1nc2cc(/N=C/c3c[nH]c4ccccc34)ccc2n1C` [CBK262085], the viability at 28.5 h, 10 µM worked out at 88.8%. On the same count and under the same terms, the same measure for `c1ccc(CC(NCc2c[nH]c3ccccc23)c2ccccc2)cc1` (stereo not drawn) [CBK262087]: 96.4%; for `CC(C)(CNS(=O)(=O)c1ccc(Cl)cc1)OCc1ccccc1` [CBK262088]: 91.4%; for `O=C(/C=C(\c1ccccc1)n1cncn1)c1ccc(Cl)cc1` [CBK262089]: 90.7%. On the same count and under the same terms, the same measure for `Cc1ccc(N(CC(=O)N/N=C/c2ccccc2)S(=O)(=O)c2ccccc2)cc1` [CBK262090]: 88.3%; for `O=C(Nc1ccccc1O)c1ccc2c(c1)C(=O)N(c1ccc(Sc3ccc([N+](=O)[O-])cc3)cc1)C2=O` [CBK262092]: 86.8%. For `O=C(O)c1ccc(S(=O)(=O)NCc2ccccc2)cc1` [CBK262093], the viability at 28.5 h, 10 µM was determined as 102%. Take `O=C(Oc1cccc(-c2cnc3ccccc3n2)c1)c1cccc(S(=O)(=O)N2CCOCC2)c1` [CBK262096]: the viability at 28.5 h, 10 µM was determined as 89.3%. Turning to `Cc1ccc(/C=N/NC(=O)CN(c2ccccc2)S(=O)(=O)c2ccccc2)c(C)c1C` [CBK262098], the viability at 28.5 h, 10 µM was found to be 89.6%.

Take `C/C(=N\Nc1nc(-c2ccccc2)cs1)c1ccccc1` [CBK262104]: the viability at 28.5 h, 10 µM is 88.8%. For `Cc1ccccc1C(=O)NC(=S)Nc1sc2c(c1C(N)=O)CCC2` [CBK262107], the viability at 28.5 h, 10 µM amounted to 88.9%.

As to `CC(NC(=O)COc1ccc(Cl)cc1)C(=O)O` (stereo not drawn) [CBK262112], the viability at 28.5 h, 10 µM stood at 90.7%. `CC(Oc1cccc(Cl)c1)C(=O)N/N=C/c1cccc(Oc2ccccc2)c1` (stereo not drawn) [CBK262113]: the viability at 28.5 h, 10 µM was 77.5%.

Regarding `Cn1c(/N=N/c2c(-c3ccccc3)n(C)c3ccccc23)nc2ccccc21` [CBK262114], the viability at 28.5 h, 10 µM stood at 81.2%. Same read-out and setting: the same measure for `O=C(O)CCC(=O)NNC(=O)c1cccc(O)c1` [CBK262116]: 97.8%; for `Cc1ccc(S(=O)(=O)c2cccc(S(=O)(=O)N3CCOCC3)c2)cc1S(=O)(=O)N1CCOCC1` [CBK262117]: 109%; for `Cc1ccccc1NCC(=O)N/N=C\c1cc(Br)c(O)c(Br)c1` [CBK262120]: 87.7%. Same read-out and setting: the same measure for `N#C/C(=C\c1ccc(-c2ccc(C(=O)O)c(O)c2)o1)c1nc2ccccc2[nH]1` [CBK262121]: 91.7%; for `Cc1[nH]c(=O)[nH]c(=O)c1S(=O)(=O)Nc1ccc(S(N)(=O)=O)cc1` [CBK262123]: 91.7%; for `O=C(COC(=O)c1cc(O)nc2ccccc12)c1ccc(Br)cc1` [CBK262125]: 103%. Consider `CSc1ccc(CNCCc2c[nH]c3ccccc23)cc1` [CBK262126], for which the viability at 28.5 h, 10 µM came out at 93.4%. As for `COc1ccc(CC(C(=O)O)C(=O)O)cc1OC` [CBK262127], the viability at 28.5 h, 10 µM stood at 95.9%. Same read-out and setting: the same measure for `N=c1n(CC(=O)c2ccc(-c3ccccc3)cc2)c2ccccc2n1Cc1ccccc1` [CBK262128B]: 99.3%; for `O=C(Cn1c(NCCO)nc2ccccc21)C12CC3CC(CC(C3)C1)C2` [CBK262129B]: 85.4%.

Consider `O=C(CSc1nc2ccccc2s1)c1cccc([N+](=O)[O-])c1` [CBK262130], for which the viability at 28.5 h, 10 µM was 88.2%. Still for that read-out and setting: the same measure for `O=C(Nc1cccc2cccnc12)c1sc2ccccc2c1Cl` [CBK262132]: 98.8%; for `O=C1c2ccc(-n3c(=O)c4cc5c(=O)n(-c6ccc7c(c6)C(=O)N(c6ccccc6)C7=O)c(=O)c5cc4c3=O)cc2C(=O)N1c1ccccc1` [CBK262136]: 88.1%. On the same count and under the same terms, the same measure for `O=C(Cn1c(NCCO)nc2ccccc21)c1ccc([N+](=O)[O-])cc1` [CBK262139B]: 100%; for `O=C(O)CSCC(=O)c1ccccc1` [CBK262140]: 93.1%. Still for that read-out and setting: the same measure for `Cc1noc(NS(=O)(=O)c2ccc(NC(=O)COc3ccc(Cl)cc3Cl)cc2)c1C` [CBK262142]: 89.3%; for `O=C(/C(=C\c1ccc([N+](=O)[O-])cc1)n1cncn1)c1ccc(Cl)cc1Cl` [CBK262145]: 90.3%; for `CCOc1cc(/C=N\NC(=O)CNc2ccccc2C)cc(Br)c1O` [CBK262151]: 86.5%. Regarding `Cc1cccnc1NC(=O)COc1ccc(Cl)cc1Cl` [CBK262154], the viability at 28.5 h, 10 µM turned out to be 86.5%. Same read-out and setting: the same measure for `Cc1cc(I)ccc1S(=O)(=O)NCc1ccccn1` [CBK262155]: 106%; for `O=C(NCc1ccccn1)C(=O)N/N=C/c1ccccc1O` [CBK262157]: 85.4%; for `COc1ccc(CNC(=O)C(=O)NCc2ccccc2)cc1` [CBK262158]: 103%. On the same count and under the same terms, the same measure for `O=[N+]([O-])c1ccc(COc2cccc(/C=N/Nc3nc4ccccc4s3)c2)cc1` [CBK262160]: 87.8%. As for `O=c1c(-c2nc3ccccc3s2)coc2c(CN3CCCCC3)c(O)ccc12` [CBK262161], the viability at 28.5 h, 10 µM was 106%. For the compound `CCOc1ccc2nc(NS(=O)(=O)c3ccc4c5c(cccc35)C(=O)N4)sc2c1` [CBK262162], the viability at 28.5 h, 10 µM worked out at 100%. Regarding `O=C(N/N=C/c1cc(Br)cc(Br)c1O)C(Oc1ccccc1)Oc1ccccc1` [CBK262164], the viability at 28.5 h, 10 µM turned out to be 95.6%.

In the case of `COc1cc(/C=C2/S/C(=N\c3ccccc3)NC2=O)ccc1OCc1ccccc1[N+](=O)[O-]` [CBK262165], the viability at 28.5 h, 10 µM stood at 88.4%. On to `Cc1ccc(N(CC(=O)N/N=C2\C(=O)Nc3ccccc32)S(=O)(=O)c2ccccc2)cc1` [CBK262169], for which the viability at 28.5 h, 10 µM came to 105%.

Regarding `O=C(CN1C(=O)/C(=C/c2ccccc2)SC1=S)Nc1cccc(C(=O)O)c1` [CBK262171], the viability at 28.5 h, 10 µM came to 86.9%. As to `O=C(O)c1ccc(/C=C/C(=O)c2ccc3c(c2)OCCO3)cc1` [CBK262173], the viability at 28.5 h, 10 µM turned out to be 89.1%. On the same count and under the same terms, the same measure for `O=C(NC(NCc1ccco1)C(Cl)(Cl)Cl)c1ccc(Br)cc1` (stereo not drawn) [CBK262174]: 89%. The same measure, in the same setting: the same measure for `NS(=O)(=O)c1ccc(NC(=S)NC(=O)/C=C/c2ccc([N+](=O)[O-])cc2)cc1` [CBK262176]: 99.2%. On the same count and under the same terms, the same measure for `Cc1ccc(NC(=O)CC(=O)NCCN2CCOCC2)cc1` [CBK262179]: 92.8%. Turning to `COc1cc(/C=C2/SC(=N)NC2=O)ccc1OCc1ccccc1[N+](=O)[O-]` [CBK262181], the viability at 28.5 h, 10 µM amounted to 85.4%. Regarding `Cc1ccc(N(CC(=O)N/N=C/c2ccc(Cl)cc2)S(=O)(=O)c2ccccc2)cc1` [CBK262182], the viability at 28.5 h, 10 µM is 98.3%. `Cc1cccnc1NC(=O)c1cccc(C(=O)Nc2ncccc2C)c1` [CBK262184]: the viability at 28.5 h, 10 µM turned out to be 88.6%.

On to `O=C(N/N=C/c1ccc(C(=O)O)cc1)C(=O)Nc1cccc(Br)c1` [CBK262185], for which the viability at 28.5 h, 10 µM worked out at 88.6%. Regarding `Nc1nnnn1CC(=O)N/N=C/c1cc2c(cc1[N+](=O)[O-])OCO2` [CBK262187], the viability at 28.5 h, 10 µM was 117%.

Take `CN(C)CCCNC(=O)COc1ccccc1` [CBK262189]: the viability at 28.5 h, 10 µM came to 88%. In the case of `O=C(CCCN1C(=O)c2cccc3cccc(c23)C1=O)NCc1cccnc1` [CBK262190], the viability at 28.5 h, 10 µM worked out at 73.9%. Regarding `O=C(O)c1ccc(N2C(=O)CC(S/C(=N\c3ccccc3)Nc3ccccc3)C2=O)cc1` (stereo not drawn) [CBK262191], the viability at 28.5 h, 10 µM came to 107%. Still for that read-out and setting: the same measure for `Cc1ccc(N(CC(=O)NN=C2CCCCCCCCCCC2)S(=O)(=O)c2ccccc2)cc1` [CBK262192]: 105%; for `CC(=O)Nc1ccc(S(=O)(=O)N2CCN(CCO)CC2)cc1` [CBK262196]: 95.1%; for `COc1cccc(CNCc2ccccc2[N+](=O)[O-])c1OC` [CBK262198]: 98%. Regarding `Cc1ccc(N(CC(=O)Nc2cccc3cccnc23)S(=O)(=O)c2ccc(C)cc2)cc1` [CBK262201], the viability at 28.5 h, 10 µM was found to be 104%.

Consider `COc1cccc(/C=C2\SC(=S)N(CC(=O)NNC(=O)c3ccccc3O)C2=O)c1` [CBK262202], for which the viability at 28.5 h, 10 µM was found to be 91.1%.

`O=C(NCc1ccccn1)C(=O)N/N=C/c1ccccc1[N+](=O)[O-]` [CBK262204]: the viability at 28.5 h, 10 µM is 96.4%. As for `Cc1ccc(C)c(S(=O)(=O)NCCCn2ccnc2)c1` [CBK262205], the viability at 28.5 h, 10 µM was determined as 109%.

Consider `Cc1cc(NCc2ccccc2)nc2ccccc12` [CBK262206], for which the viability at 28.5 h, 10 µM is 93.5%.

`COc1ccccc1N1CCN(CCc2nnc(S)n2-c2ccccc2)CC1` [CBK262212]: the viability at 28.5 h, 10 µM came out at 102%. As to `C[N+]1(c2ccccc2)CCC(N)=N1` (stereo not drawn) [CBK262213I], the viability at 28.5 h, 10 µM was 91.8%. Still for that read-out and setting: the same measure for `O=C(O)CSc1nccn1Cc1ccccc1` [CBK262215]: 103%. On the same count and under the same terms, the same measure for `CC(Oc1cccc2ccccc12)C(=O)N/N=C/c1ccc(Cl)cc1Cl` (stereo not drawn) [CBK262218]: 97%.

Staying with this data set, now noted: human, hela cells, % viability, bulk resorufin, single well.
For `O=C(N/N=C1/CN2CCC1CC2)c1cccc(O)c1` [CBK262188C], the viability at 28.5 h, 10 µM was found to be 93.5%.

Take `COc1ccc(CCNCc2ccc([N+](=O)[O-])cc2)cc1OC` [CBK262217]: the viability at 28.5 h, 10 µM was found to be 115%.
